Consider 1 molecule from patent EP1283052A1, “Pharmaceutical composition containing caspase-8 and /or caspase-9 useful for overcoming glucocorticoid- and cancer therapy-induced apoptosis of tumours” (Deutsches Krebsforschungszentrum Stiftung des öffentlichen …, priority 2001, dated 2003).

Assay [1] concerns P693 lung carcinoma xenografts. In words: P693 lung carcinoma xenografts in nude mice, tumour volume. As to conditions: cisplatin 5mg/kg/week intraperitoneally for five weeks, absence of DEX; Fig. 1a. Type of assay: in vivo. The protocol: • (a) Human epidermoid lung cancer cells (P693) were injected into nude mice. At a tumour volume of 500 mm^3 weekly treatment with cisplatin (5mg/kg/week) was started. Cisplatin was injected intraperitoneally in the absence (CIS) or presence (DEX/CIS) of DEX which was added to the drinking water (0.28 mg/L) for the duration of the experiment. […] As controls, tumor growth of xenografts from mice which received neither cisplatin nor DEX (CO) or from mice which received DEX only (DEX) was determined. The tumour volume in each animal was measured at weekly intervals for a period of 5 weeks. Data are presented as the means +/- SD of 6 to 8 animals. • (b) The human cervical carcinoma cell lines HeLa and P5 were γ-irradiated (10 Gy) or treated with cisplatin (2 µg/ml) in the absence (white bars) or presence (black bars) of DEX (1 µM). The percentage of apoptosis was measured in untreated (CO) and stimulated cells by annexin-staining and FACS-analysis at the time points indicated. (c) P5, P693 and human leukemic T cells (CEM) cells were treated with cisplatin (2 µg/ml) in the absence or presence of DEX as indicated. 24 and 48 h following treatment cells were lysed and caspase-3 activity was determined by a fluorescent caspase-3 assay and spectroscopy.

For assay [2], the system named is caspase-9 and caspase-3. Put plainly: Caspase-9 and caspase-3 protein expression in P5 cells (immunofluorescence, Western blot). Type of assay: cell-based, human. As to conditions: Fig. 4c. As to the method:
P5 cells either untreated (CO) or stimulated with cisplatin (CIS, 2 µg/ml) were incubated in the absence or presence of DEX (1 µM). • (a) 6 and 24 h later RNA was extracted and assayed by RT-PCR for expression of caspase-9. Expression of the GAPDH gene served as control for equal conditions. • (b) 24 h after stimulation expression of caspase-9 proteins was examined by immunofluorescence staining using a rabbit polyclonal caspase-9 antibody and a FITC-coupled secondary antibody. Staining with the secondary antibody alone served as control for unspecific binding. • (c) 48 and 72 h after treatment whole cell proteins were extracted and analysed for expression of caspase-9 and caspase-3. The protein sizes in kDa are indicated on the right. […]
• (A) Cell culture. […] The mice were given 0.28 mg/L DEX in drinking water, and the amount of water consumed was monitored. […] The tumour volumes were measured using callipers, and calculated using, as an approximation, the formula for volume of a hemi-ellipsoid: π(width^2 x length)/6. […] Early apoptotic changes were identified by staining of cells with fluoresceinthiocyanate (FITC)-conjugated annexin V and propidium iodide (Becton Dickinson, Heidelberg, Germany) and analysed by flow cytometry (FACScan, Becton Dickinson) as described (Herr et al., EMBO J. 16 (1997), 6200-6208) • (E) Immunohistochemistry. […]
In general terms: Immunoblotting shows a protein as a band on a membrane.

As to `N.N.[Cl][Pt][Cl]` [cisplatin], the tumour growth result in assay [1] is “profound reduction of tumour growth”. The “protein levels of procaspase-9” value in assay [2] (Western blot at 48 and 72 h) was “reduced the protein levels of procaspase-9”. In addition, in assay [2] (cisplatin alone, 48 and 72 h), the procaspase-3 cleavage entry was “cleaved 48 and 72 h following cisplatin”.
